Values joined by “and” are separate entries in the source; they are usually repeats but may differ in a detail not shown here. Equal entries are not always repeated.
Tests used:
[1] = Body weight of atopy-induced NC/Nga mice; settings: DNCB atopy-induced NC/Nga mice
Excerpt: 20 fourteen-week old female NC/Nga mice (Central Lab. Animal Inc., Korea) with a body weight of about 20 g were used. The experimental animals were allowed to adapt for 7 days in the animal rooms before the experiment, and observed for general symptoms.
A test solution prepared by dissolving a mixture consisting of acetone and olive oil in 3:1 ratio in dinitrochlorobenzene (DNCB) to a concentration of about 1% to about 0.2% was coated on the skin of the NC/Nga mice to induce atopic dermatitis.
Body weight was measured twice from the time when the test material was administered.

spleen = test: Measurement of spleen weight; format: in vivo, NC/Nga mice; settings: for relative organ weight of spleen: group mean; for Absolute Comparison of Organs spleen wt. / Relative Comparison of Organs spleen: individual mouse; for Absolute Comparison of Organs spleen wt. mean S.D. / Relative Comparison of Organs spleen mean S.D.: mean of 5 mice
Experimental: The spleen of a sacrificed animal was ablated, removed of fat, and then measured of its weight. When the absolute organ weight of the spleen was compared with that of the positive control group (0.2576±0.043 g), the weight was lower in the order of test drug chlorophyll a 1 mg/kg group (0.1188±0.023 g), chlorophyll a 5 mg/kg group (0.1276±0.011 g), and 5 mg/kg drug control group (0.1376±0.025 g), and all of them were of significance at p<0.05, but were lower than that of the negative control group (0.1734±0.021 g) (FIG. 6).

Q: Which body weight ([1]; 1 mg/kg oral daily, day 1, individual mouse, 1 mg/kg) does the source give for C=Cc1c(C)c2cc3nc(c4c5[n-]c(cc6nc(cc1[n-]2)C(C)=C6CC)c(C)c5C(=O)[C@@H]4C(=O)OC)[C@@H](CCC(=O)OC/C=C(\C)CCC[C@H](C)CCC[C@H](C)CCCC(C)C)[C@@H]3C.[Mg+2] [chlorophyll a] here?
A: The body weight was 25.6 g and 27.4 g and 24.5 g and 24 g and 26.1 g.

Q: And the “body weight, group mean” value ([1]; 1 mg/kg oral daily, day 1, mean of 5 mice)?
A: The value was 25.52 g.

Q: And the body weight ([1]; 1 mg/kg oral daily, day 3, individual mouse, 1 mg/kg)?
A: Its body weight is 25.7 g and 27.6 g and 25.8 g and 25.5 g and 27.1 g.

Q: And the “body weight, group mean” value ([1]; 1 mg/kg oral daily, day 3, mean of 5 mice)?
A: The value was 26.34 g.

Q: What about the body weight ([1]; 1 mg/kg oral daily, day 5, individual mouse, 1 mg/kg) of the same compound?
A: Its body weight is 27.3 g and 28.2 g and 26.5 g and 26 g and 27.8 g.

Q: What about the “body weight, group mean” value ([1]; 1 mg/kg oral daily, day 5, mean of 5 mice) of the same compound?
A: Its value is 27.16 g.

Q: What about the body weight ([1]; 1 mg/kg oral daily, day 7, individual mouse, 1 mg/kg) of the same compound?
A: The body weight was 27.3 g and 27.6 g and 26.5 g and 24.7 g and 28.6 g.

Q: What about the “body weight, group mean” value ([1]; 1 mg/kg oral daily, day 7, mean of 5 mice) of the same compound?
A: Its value is 26.94 g.

Q: And the body weight ([1]; 1 mg/kg oral daily, day 9, individual mouse, 1 mg/kg)?
A: Its body weight is 28.4 g and 27.4 g and 25.8 g and 25.7 g and 27.7 g.

Q: And the “body weight, group mean” value ([1]; 1 mg/kg oral daily, day 9, mean of 5 mice)?
A: The value was 27 g.

Q: And the “body weight, group mean” value ([1]; 1 mg/kg oral daily, day 11 (time of sacrifice), mean of 5 mice, 1 mg/kg)?
A: The value was 28.36 ± 1.045 g and 28.36 g.

Q: And the body weight ([1]; 1 mg/kg oral daily, day 11, individual mouse, 1 mg/kg)?
A: Its body weight is 29 g and 28.9 g and 27.5 g and 27 g and 29.4 g.

Q: And the body weight ([1]; 5 mg/kg oral daily, day 1, individual mouse, 5 mg/kg)?
A: Its body weight is 24.9 g and 28.6 g and 27.5 g (2×) and 27.1 g.

Q: What about the “body weight, group mean” value ([1]; 5 mg/kg oral daily, day 1, mean of 5 mice) of the same compound?
A: Its value is 27.12 g.

Q: And the body weight ([1]; 5 mg/kg oral daily, day 3, individual mouse, 5 mg/kg)?
A: The body weight was 24.8 g and 29.6 g and 27.1 g and 29 g and 27.4 g.

Q: What about the “body weight, group mean” value ([1]; 5 mg/kg oral daily, day 3, mean of 5 mice) of the same compound?
A: Its value is 27.58 g.

Q: And the body weight ([1]; 5 mg/kg oral daily, day 5, individual mouse, 5 mg/kg)?
A: Its body weight is 25.9 g and 30.8 g and 26.7 g and 29.3 g and 28 g.

Q: And the “body weight, group mean” value ([1]; 5 mg/kg oral daily, day 5, mean of 5 mice)?
A: Its value is 28.14 g.

Q: What about the body weight ([1]; 5 mg/kg oral daily, day 7, individual mouse, 5 mg/kg) of the same compound?
A: Its body weight is 25.9 g and 30.6 g and 27.2 g and 30.2 g and 28.2 g.

Q: What about the “body weight, group mean” value ([1]; 5 mg/kg oral daily, day 7, mean of 5 mice) of the same compound?
A: Its value is 28.42 g.

Q: What about the body weight ([1]; 5 mg/kg oral daily, day 9, individual mouse, 5 mg/kg) of the same compound?
A: Its body weight is 25.3 g and 30.6 g and 27.2 g and 29 g and 27 g.

Q: And the “body weight, group mean” value ([1]; 5 mg/kg oral daily, day 9, mean of 5 mice)?
A: The value was 27.82 g.

Q: What about the “body weight, group mean” value ([1]; 5 mg/kg oral daily, day 11 (time of sacrifice), mean of 5 mice, 5 mg/kg) of the same compound?
A: The value was 28.86 ± 2.033 g and 28.86 g.

Q: What about the body weight ([1]; 5 mg/kg oral daily, day 11, individual mouse, 5 mg/kg) of the same compound?
A: Its body weight is 25.7 g and 31.3 g and 29.2 g and 29.5 g and 28.6 g.

Q: What about the “change in body weight by the administration” value ([1]; oral administration, in words) of the same compound?
A: The value was “no decrease”.

Q: And the “relative organ weight of spleen” value (spleen; 1 mg/kg oral daily)?
A: The value was 0.418 ± 0.211 g.

Q: And the “Absolute Comparison of Organs spleen wt.” value (spleen; 1 mg/kg oral daily)?
A: The value was 0.103 g and 0.114 g and 0.119 g and 0.1 g and 0.158 g.

Q: What about the “Relative Comparison of Organs spleen” value (spleen; 1 mg/kg oral daily) of the same compound?
A: Its value is 0.355 g/body wt. (100 g) and 0.394 g/body wt. (100 g) and 0.433 g/body wt. (100 g) and 0.370 g/body wt. (100 g) and 0.537 g/body wt. (100 g).

Q: What about the “Absolute Comparison of Organs spleen wt. mean S.D.” value (spleen; 1 mg/kg oral daily) of the same compound?
A: The value was 0.1188 ± 0.023 g.

Q: And the “Relative Comparison of Organs spleen mean S.D.” value (spleen; 1 mg/kg oral daily)?
A: Its value is 0.418 ± 0.073 g/body wt. (100 g).

Q: What about the “relative organ weight of spleen” value (spleen; 5 mg/kg oral daily) of the same compound?
A: The value was 0.446 ± 0.069 g.

Q: And the “Absolute Comparison of Organs spleen wt.” value (spleen; 5 mg/kg oral daily)?
A: Its value is 0.144 g and 0.12 g and 0.133 g and 0.122 g and 0.119 g.

Q: And the “Relative Comparison of Organs spleen” value (spleen; 5 mg/kg oral daily)?
A: Its value is 0.560 g/body wt. (100 g) and 0.383 g/body wt. (100 g) and 0.455 g/body wt. (100 g) and 0.414 g/body wt. (100 g) and 0.416 g/body wt. (100 g).

Q: What about the “Absolute Comparison of Organs spleen wt. mean S.D.” value (spleen; 5 mg/kg oral daily) of the same compound?
A: Its value is 0.1276 ± 0.011 g.

Q: And the “Relative Comparison of Organs spleen mean S.D.” value (spleen; 5 mg/kg oral daily)?
A: Its value is 0.446 ± 0.069 g/body wt. (100 g).

Q: And the “absolute organ weight and relative organ weight of spleen compared with the negative control group” value (spleen; in words, dose not split)?
A: The value was “only a little difference”.

— US20130274237A1, “COMPOSITION INCLUDING CHLOROPHYLL A AS AN ACTIVE INGREDIENT FOR PREVENTING AND TREATING TH2-MEDIATED IMMUNOLOGICAL DISEASES” (GWANGJU INSTITUTE OF SCIENCE AND TECHNOLOGY, priority 2009, published 2013)
